Where two headings read alike, the source gives them in different places.
Legend:
Assay type in all cases: cell-based
[1] = tested on: constitutive active colorectal cancer cell (CRC) Wnt pathway; assay: HCT116 Super TopFlash cellular reporter assay (constitutive active Wnt pathway); settings: HCT116 TOP reporter cells, luciferase expression, 36 hours incubation, 50 μM to 15 nM
Summary of the method: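 HCT116 cells (β-catenin ΔS45) stably carrying Super TopFlash, with a parallel FOP-control line, were plated 24 h ahead. They were exposed 36 h at 37 °C, 5% CO2 to compound from a 50 μM–15 nM, 3.16-fold pre-dilution series in CAFTY buffer (pH 7.4, 2 mM Ca2+, 0.01% BSA). Wnt signalling was read as luciferase luminescence.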

[2] = tested on: HEK293 FOP control reporter cell line; assay: HEK293 FOP control vector reporter assay; settings: Homo sapiens; HEK293 FOP control reporter cells, EC50 concentration of recombinant Wnt-3a, 16 hours incubation; read-out: HEK FOP IC50
Experimental: (§1) In order to determine the inhibitory activity of compounds for the WT Wnt signaling pathway, the Super TopFlash vector respectively FOP vector were cotransfected with pcDNA3 into HEK293 and stable transfected HEK293 cells were isolated by antibiotic selection. […] The recombinant human Wnt-3a was thereby used between 2500 and 5 ng/ml in two-fold dilution steps. […] Measurement of luciferase expression was done as described for the constitutive active Wnt assay.
In a parallel approach, HEK293 cells were cotransfected with the FOP control vector and pcDNA3. The FOP vector is identical to the TOP construct, but it contains instead of functional TCF elements a randomized, non-functional sequence. For this transfection a stable transfected cell line was generated as well, based on selection with Geneticin (1 mg/ml).
(§2) In preparation of the assay, the two cell lines were plated 24 hours before beginning the test at 10000 cells per well in a 384 micro titre plate (MTP) in […] growth medium. […] The recombinant human Wnt-3a was thereby applied between 2500 and 5 ng/ml in two-fold dilution steps. Selective inhibitory activity for small molecules on the wildtype Wnt pathway was determined after parallel incubation of both (TOP and FOP) HEK293 reporter cell lines with a compound dilution series from 50 μM to 15 nM in steps of 3.16-fold dilutions in CAFTY buffer (130 mM NaCl, 5 mM KCl, 20 mM HEPES, 1 mM MgCl2, 5 mM NaHCO3, pH 7.4) containing 2 mM Ca^2+ and 0.01% BSA.
(§3) The compounds were thereby serially prediluted in 100% DMSO and thereafter 50 fold into the CAFTY compound dilution buffer (described above).

[3] = tested on: HCT116 FOP control reporter cell line; assay: HCT116 FOP control vector reporter assay (non-functional TCF elements); settings: HCT116 FOP control reporter cells, luciferase expression, 36 hours incubation, 50 μM to 15 nM, read-out: HCT116 FOPFlash IC50
Summary of the method: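 Stable HCT116 line carrying the non-functional FOP luciferase construct, 10000 cells/well plated 24 hrs before. Compounds 50 μM to 15 nM (3.16-fold steps) in CAFTY buffer pH 7.4 with 2 mM Ca2+, 36 hours at 37° C; luciferase luminescence read.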

wildtype Wnt pathway = assay: HEK293 Super TopFlash cellular reporter assay, Wnt-3a stimulated (wildtype Wnt pathway); settings: Homo sapiens; HEK293 TOP reporter cells, EC50 concentration of recombinant Wnt-3a, 16 hours incubation; read-out: HEK TOP OncoFlash IC50
Experimental: as §1
In order to discover and characterize small molecules which inhibit the wildtype Wnt pathway, a cellular reporter assay was employed. The corresponding assay cell was generated by transfection of the mammalian cell line HEK293 (ATCC, #CRL-1573) with the Super TopFlash vector (Morin, Science 275, 1997, 1787-1790; Molenaar et al., Cell 86 (3), 1996, 391-399). The HEK293 cell line is cultivated at 37° C. and 5% CO2 in DMEM (Life Technologies, #41965-039), supplemented with 2 mM glutamine, 20 mM HEPES, 1.4 mM pyruvate, 0.15% Na-bicarbonate and 10% foetal bovine serum (GIBCO, #10270). Stable transfectants were generated by selection with 300 μg/ml Hygromycin.
as §2, §3

Row | SMILES | IC50 ([1]; Homo sapiens, HCT-116, 36 h) [nM] | IC50 [2] [nM] | IC50 ([3]; Homo sapiens, HCT-116, 36 h) [nM] | IC50 (wildtype Wnt pathway) [nM] | IC50 [1] [nM] | IC50 [3] [nM]
1 | COC(=O)c1ccc(-c2ccc(C(=O)Nc3ccc(OC)c(NC(=O)CN4CCOCC4)c3)cc2)cc1 [Example 79, methyl 4′-({4-methoxy-3-[(morpholin-4-ylacetyl)amino]phenyl}carbamoyl)biphenyl-4-carboxylate] | 1480 | ≥ 50000 | ≥ 50000 | 4100 | – | –
2 | O=C(CN1CCOCC1)Nc1cc(C(=O)Nc2ccc(-c3ccccc3)cc2)ccc1OCC(F)(F)F [Example 127, N-(biphenyl-4-yl)-3-[(morpholin-4-ylacetyl)amino]-4-(2,2,2-trifluoroethoxy)benzamide] | 44.5 | 31000 | ≥ 50000 | 110 | – | –
3 | O=C(Nc1ccc(-c2ccccc2)cc1)c1ccc(OC(F)(F)F)c(NC(=O)C2(N3CCOCC3)CC2)c1 [Example 94, N-(biphenyl-4-yl)-3-({[1-(morpholin-4-yl)cyclopropyl]carbonyl}amino)-4-(trifluoromethoxy)benzamide] | 10.9 | 7600 | ≥ 50000 | 5.09 | – | –
4 | COc1ccc(NC(=O)c2ccc(-c3ccccc3)cc2)cc1NC(=O)Cn1cccn1 [Example 27, N-{4-methoxy-3-[(1H-pyrazol-1-ylacetyl)amino]phenyl}biphenyl-4-carboxamide] | 1200 | 9300 | 23000 | 700 | – | –
5 | CC(C(=O)Nc1cc(NC(=O)c2ccc(-c3ccccc3)cc2)ccc1C(F)(F)F)N1CC2CCC(C1)O2 (single isomer, unassigned) [Example 182, N-[3-{[(2R*)-2-(8-oxa-3-azabicyclo[3.2.1]oct-3-yl)propanoyl]amino}-4-(trifluoromethyl)phenyl] biphenyl-4-carboxamide] | – | – | ≥ 50000 | – | 311 | –
6 | COc1cc(Cl)c(C(=O)Nc2ccc(-c3ccccc3)cc2)cc1NC(=O)CN1CCOCC1 [Example 6, N-(biphenyl-4-yl)-2-chloro-4-methoxy-5-[(morpholin-4-ylacetyl)amino]benzamide] | 3920 | – | ≥ 50000 | – | – | –
7 | COc1ccc(NC(=O)c2ccc(-c3ccccc3)cc2)cc1NC(=O)C1(N2CCOCC2)CC1 [Example 150, N-[4-methoxy-3-({[1-(morpholin-4-yl)cyclopropyl]carbonyl}amino)phenyl]biphenyl-4-carboxamide] | 26.2 | – | ≥ 50000 | – | – | –
8 | COCCOCc1ccc(C(=O)Nc2ccc(-c3ccccc3)cc2)cc1NC(=O)C(C)N1CCOCC1 (single isomer, unassigned) [Example 162, N-(biphenyl-4-yl)-4-[(2-methoxyethoxy)methyl]-3-{[(2R*)-2-(morpholin-4-yl)propanoyl)amino} benzamide] | 103 | – | 10400 | – | – | –
9 | O=C(CN1C[C@@H]2C[C@H]1CO2)Nc1cc(C(=O)Nc2ccc(-c3ccccc3)cc2)ccc1OC1CC1 [Example 192, N-(biphenyl-4-yl)-4-(cyclopropyloxy)-3-{[(1S,4S)-2-oxa-S-azabicyclo[2.2.1]hept-5-ylacetyl]amino}benzamide] | 785 | – | ≥ 50000 | – | – | –
10 | O=C(Nc1ccc(-c2ccccc2)cc1)c1ccc(OC2CC2)c(NC(=O)C2(N3CCOCC3)CC2)c1 [Example 113, N-(biphenyl-4-yl)-4-(cyclopropyloxy)-3-({[1-(morpholin-4-yl)cyclopropyl]carbonyl}amino)benzamide] | 159 | – | ≥ 50000 | – | – | –
11 | COCc1ccc(C(=O)Nc2ccc(-c3ccccc3)cc2)cc1NC(=O)CN1C[C@@H]2C[C@H]1CO2 [Example 175, N-(biphenyl-4-yl)-4-(methoxymethyl)-3-{[(1S,4S)-2-oxa-5-azabicyclo[2.2.1]hept-5-ylacetyl)amino}benzamide] | 218 | – | 7300 | – | – | –
12 | COc1c(F)cc(C(=O)Nc2ccc(-c3ccccc3)cc2)cc1NC(=O)CN1CCN(C)CC1 [Example 216, N-(biphenyl-4-yl)-3-fluoro-4-methoxy-5-{[(4-methylpiperazin-1-yl)acetyl]amino}benzamide] | 524 | – | 6950 | – | – | –
13 | O=C(CN1C[C@H]2C[C@@H]1CO2)Nc1cc(C(=O)Nc2ccc(-c3ccccc3)cc2)ccc1OC1CC1 [Example 181, N-(biphenyl-4-yl)-4-(cyclopropyloxy)-3-{[(1R,4R)-2-oxa-5-azabicyclo[2.2.1]hept-5-ylacetyl]amino}benzamide] | 302 | – | ≥ 50000 | – | – | –
14 | COCc1ccc(C(=O)Nc2ccc(-c3ccccc3)cc2)cc1NC(=O)C(C)N1CCOCC1 (stereo not shown) [Example 157, N-(biphenyl-4-yl)-4-(methoxymethyl)-3-{[2-(morpholin-4-yl)propanoyl)amino} benzamide] | 60.5 | – | 43500 | – | – | –
15 | O=C(CN1CCOCC1)Nc1cc(C(=O)Nc2ccc(-c3ccccc3)cc2)ccc1C(=O)NCCCN1CCCC1 [Example 103, N^4-(biphenyl-4-yl)-2-[(morpholin-4-ylacetyl)amino]-N-[3-(pyrrolidin-1-yl)propyl]terephthalamide] | 302 | – | 7400 | – | – | –
16 | CN(C)CCNC(=O)c1ccc(C(=O)Nc2ccc(-c3ccccc3)cc2)cc1NC(=O)CN1CCOCC1 [Example 105, formic acid —N^4-(biphenyl-4-yl)-N^1-[2-(dimethylamino)ethyl]-2-[(morpholin-4-ylacetyl)amino]terephthalamide (1:1)] | 552 | – | 7800 | – | – | –
17 | CC(CN1CCOCC1)C(=O)Nc1cc(C(=O)Nc2ccc(-c3ccccc3)cc2)ccc1C(F)(F)F (stereo not shown) [Example 139, N-(biphenyl-4-yl)-3-{[2-methyl-3-(morpholin-4-yl)propanoyl]amino}-4-(trifluoromethyl)benzamide] | 1430 | – | ≥ 50000 | – | – | –
18 | COc1ccc(NC(=O)c2ccc(-c3ccccc3)cc2)cc1NC(=O)Cc1cccc(F)c1 [Example 142, N-(3-{[(3-fluorophenyl)acetyl]amino}-4-methoxyphenyl)biphenyl-4-carboxamide] | 2850 | – | ≥ 50000 | – | – | –
19 | COc1ccc(NC(=O)c2ccc(-c3ccccc3)cc2)cc1NC(=O)CN1CCOC[C@H]1CCO [Example 44, N-[3-({[(3R)-3-(2-hydroxyethyl)morpholin-4-yl]acetyl}amino)-4-methoxyphenyl]biphenyl-4-carboxamide] | 2900 | – | ≥ 50000 | – | – | –
20 | COCCOCc1ccc(C(=O)Nc2ccc(-c3ccccc3)cc2)cc1NC(=O)CN1CC2CCC(C1)O2 [Example 193, N-(biphenyl-4-yl)-4-[(2-methoxyethoxy)methyl]-3-[(8-oxa-3-azabicyclo[3.2.1]oct-3-ylacetyl)amino]benzamide] | 810 | – | 17000 | – | – | –
21 | COc1ccc(C(=O)Nc2ccc(-c3ccccc3)cc2)cc1NC(=O)C1(N2CCN(C)CC2)CC1 [Example 133, N-(biphenyl-4-yl)-4-methoxy-3-({[1-(4-methylpiperazin-1-yl)cyclopropyl]carbonyl}amino)benzamide] | – | – | – | – | 362 | 30000
22 | CC(C(=O)Nc1cc(NC(=O)c2ccc(-c3ccccc3)cc2)ccc1C(F)(F)F)N1CCOCC1 (single isomer, unassigned) [Example 172, N-[3-{[(2R*)-2-(morpholin-4-yl)propanoyl]amino}-4-(trifluoromethyl)phenyl] biphenyl-4-carboxamide] | 211 | – | ≥ 50000 | – | – | –

From patent US20160052898A1, “NOVEL COMPOUNDS” (BAYER PHARMA AKTIENGESELLSCHAFT, priority 2013, published 2016)
